Reference: patent US7297797B2, “Pyrrolines” (Bayer CropScience AG, priority 2002, dated 2007)
Read-outs that look alike come from different tables or passages of the source.

Legend:
[1] = test system: caterpillars of the army worm (Spodoptera frugiperda); assay: Spodoptera frugiperda test; assay type: in vivo; conditions: 168 h, 100 ppm active compound, cabbage leaves (Brassica oleracea) dipped, after 7 d, read-out: Kill rate in % after 7 d
Protocol: (§1) Spodoptera frugiperda Test • Solvent: 7 parts by weight of dimethylformamide • Emulsifier: 2 parts by weight of alkylaryl polyglycol ether To produce a suitable preparation of active compound, 1 part by weight of active compound is mixed with the stated amounts of solvent and emulsifier, and the concentrate is diluted with emulsifier-containing water to the desired concentration. Cabbage leaves (Brassica oleracea) are treated by being dipped into the preparation of active compound of the desired concentration and are populated with caterpillars of the army worm (Spodoptera frugiperda) while the leaves are still moist. After the desired period of time, the kill in % is determined. 100% means that all caterpillars have been killed; 0% means that none of the caterpillars have been killed. In this test, for example, the following compounds of the preparation examples show good activity: […]

[2] = test system: larvae of the mustard beetle (Phaedon cochleariae); assay: Phaedon larvae test; assay type: in vivo; conditions: 168 h, 100 ppm active compound, cabbage leaves (Brassica oleracea) dipped, after 7 d, read-out: Kill rate in % after 7 d
Protocol: as §1, with “Phaedon Larvae Test” for “Spodoptera frugiperda Test”, “with larvae” for “with caterpillars”, “the mustard beetle (Phaedon cochleariae)” for “the army worm (Spodoptera frugiperda)”, “all beetle larvae” for “all caterpillars”, “the beetle larvae” for “the caterpillars”

[3] = test system: caterpillars of the diamondback moth (Plutella xylostella); assay: Plutella test; assay type: in vivo; conditions: 100 ppm active compound, cabbage leaves (Brassica oleracea) dipped
Protocol: as §1, with “Plutella” for “Spodoptera frugiperda”, “diamondback moth (Plutella xylostella)” for “army worm (Spodoptera frugiperda)”

[4] = test system: caterpillars of the army worm (Spodoptera exigua); assay: Spodoptera exigua test; assay type: in vivo; conditions: 100 ppm active compound, cabbage leaves (Brassica oleracea) dipped
Protocol: as §1, with “exigua” for “frugiperda”, “exigua)” for “frugiperda)”

[5] = test system: caterpillars of the cotton bollworm (Heliothis armigera); assay: Heliothis armigera test; assay type: in vivo; conditions: Helicoverpa armigera, 168 h; 100 ppm active compound; soybean shoots (Glycine max) dipped; after 7 d; read-out: Kill rate in % after 7 d
Protocol: as §1, with “Heliothis armigera” for “Spodoptera frugiperda”, “Soybean shoots (Glycine max)” for “Cabbage leaves (Brassica oleracea)”, “cotton bollworm (Heliothis armigera)” for “army worm (Spodoptera frugiperda)”

[6] = test system: greenhouse red spider mite (Tetranychus urticae); assay: Tetranychus test (OP-resistant/dip treatment); assay type: in vivo; conditions: 168 h, 100 ppm active compound, infested bean plants (Phaseolus vulgaris) dipped, OP-resistant, after 7 d, read-out: Kill rate in % after 7 d
Protocol: Tetranychus Test (OP-Resistant/Dip Treatment)
• Solvent: 7 parts by weight of dimethylformamide • Emulsifier: 2 parts by weight of alkylaryl polyglycol ether
To produce a suitable preparation of active compound, 1 part by weight of active compound is mixed with the stated amounts of solvent and emulsifier, and the concentrate is diluted with emulsifier-containing water to the desired concentration.
Bean plants (Phaseolus vulgaris) which are heavily infested by all stages of the greenhouse red spider mite (Tetranychus urticae) are treated by being dipped into a preparation of active compound of the desired concentration.
After the desired period of time, the activity in % is determined. 100% means that all spider mites have been killed; 0% means that none of the spider mites have been killed.
In this test, for example, the following compounds of the preparation examples show good efficacy: […]

[7] = log P determination by HPLC on reversed-phase column (EEC Directive 79/831 Annex V.A8); assay type: physicochemical
Protocol: The log P values given in the preparation examples and tables above are determined in accordance with EEC Directive 79/831 Annex V.A8 by HPLC (High Performance Liquid Chromatography) on a reversed-phase column (C 18). Temperature: 43° C. In the acidic range, determination is carried out at pH 2.3 using the mobile phases 0.1% aqueous phosphoric acid and acetonitrile; linear gradient from 10% acetonitrile to 90% acetonitrile (in the tables marked with a)). In the neutral range, determination is carried out at pH 7.5 using the mobile phases 0.01 molar aqueous phosphate buffer solution and acetonitrile; linear gradient from 10% acetonitrile to 90% acetonitrile (in the tables marked with b)). Calibration is carried out using unbranched alkan-2-ones (of 3 to 16 carbon atoms) with known lopP values (determination of the log P values by the retention times using linear interpolation between two successive alkanones).

[8] = reversed-phase C18 HPLC column; acidic range, pH 2.3, 0.1% aqueous phosphoric acid/acetonitrile, 43° C.; marked a) in tables, read-out: log P (pH 2.3)
[9] = reversed-phase C18 HPLC column; neutral range, pH 7.5, 0.01 molar aqueous phosphate buffer/acetonitrile, 43° C.; marked b) in tables, read-out: log P (pH 7.5)

SMILES | pest or weed control at 100 ppm [1] [%] | pest or weed control at 100 ppm [2] [%] | Kill rate in % after 7 d [3] [%] | Kill rate in after 7 d [4] [%] | pest or weed control at 100 ppm [5] [%] | pest or weed control at 100 ppm [6] [%] | chromatographic logP [7, 8] | chromatographic logP [7, 9]
CC(C)(C)c1nc(-c2ccc(-c3ccc(C4CCC(c5c(F)cccc5F)=N4)c(F)c3)cc2)no1 (stereo not shown) [Example 6, 5-tert-butyl-3-{4′-[5-(2,6-difluorophenyl)-3,4-dihydro-2H-pyrrol-2-yl]-3′-fluoro-1,1′-biphenyl-4-yl}-1,2,4-oxadiazole] | 100 | 100 | 100 | 100 | 100 | 98 | 5.65 | 5.97
Fc1cc(-c2ccc(-c3noc(C(F)(F)F)n3)cc2)ccc1C1CCC(c2c(F)cccc2F)=N1 (stereo not shown) [Example 7] | 100 | 100 | 100 | 100 | 100 | 98 | 5.43 | 5.72
